Results taken from patent US7572765B2, “Conformationally constrained parathyroid hormone (PTH) analogs” (The General Hospital Corporation, priority 2001, dated 2009).
Square brackets hold non-standard residues; d marks the D form. Peptide text beside a SMILES is read from it. hArg = N=C(N)NCCCC[C@H](N)C(=O)O; Aib = CC(C)(N)C(=O)O

Experiments:
[1] = molecular target: T1, P1R-delNt, truncated human P1R deleted for residues (24-181) (Homo sapiens, UniProt Q03431); assay: Stimulation of inositol phosphate production (PLC) in COS-7 cells expressing hP1R-delNt; assay type: cell-based; conditions: for increase in inositol phosphate (IP) production relative to the basal level: P1R-delNt
T1 construct: expressed in transfected cells; host or cells: COS-7 (transient, FuGENE 6)
T1 sequence (Q03431 with tags, fused parts or gaps limits assumed): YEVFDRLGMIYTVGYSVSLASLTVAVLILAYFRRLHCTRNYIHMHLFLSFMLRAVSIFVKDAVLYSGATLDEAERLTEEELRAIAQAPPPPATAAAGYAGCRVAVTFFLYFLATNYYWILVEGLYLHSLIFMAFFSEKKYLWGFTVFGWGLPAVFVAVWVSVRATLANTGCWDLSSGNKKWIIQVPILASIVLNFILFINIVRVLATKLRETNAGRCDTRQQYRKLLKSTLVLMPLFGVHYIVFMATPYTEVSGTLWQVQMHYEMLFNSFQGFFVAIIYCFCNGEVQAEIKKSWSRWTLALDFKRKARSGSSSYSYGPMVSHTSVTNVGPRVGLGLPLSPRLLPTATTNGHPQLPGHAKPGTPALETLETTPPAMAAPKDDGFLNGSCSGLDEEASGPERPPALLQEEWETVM
Experimental: Cell Culture. The cell line HKRK-B28 (Takasu, H., et al., J. Bone Miner. Res. 14:11-20 (1999)) was derived from the porcine kidney cell line, LLC-PK1 by stable transfection with plasmid DNA encoding the human P1R and expresses ˜280,000 receptors per cell. These cells, as well as COS-7 cells and SaOS-2-B10 cells, were cultured at […] in T-75 flasks ([…]) in Dulbecco's modified Eagle's medium (DMEM) supplemented with fetal bovine serum (10%), penicillin G (20 units/ml), streptomycin sulfate (20 μg/ml) and amphotericin B (0.05 μg/ml) in a humidified atmosphere containing 5% CO2. Stock solutions of EGTA/trypsin and antibiotics were from GIBCO; fetal bovine serum was from Hyclone Laboratories (Logan, Utah). COS-7 cells sub-cultured in 24-well plates were transfected with plasmid DNA (200 ng per well) encoding the wild-type human P1R or truncated human P1R deleted for residues (24-181) (Shimizu, M., et al., J. Biol. Chem. 275:21836-21843 (2000)) that was purified by cesium chloride/ethidium bromide density gradient centrifugation, and FuGENE 6 transfection reagent (Roche Indianapolis Ind.) according to the manufacturer's recommended procedure. All cells, in 24-well plates, were treated with fresh media and shifted to 33° C. for 12 to 24 h prior to assay.
Stimulation of Inositol Phosphate Production. COS-7 cells transfected as above with P1R-WT were treated with serum-free, inositol-free DMEM containing 0.1% bovine serum albumin and [^3H]myo-inositol (NEN, Boston, Mass.) (2 μCi/mL) for 16 h prior to assay. At the time of the assay, the cells were rinsed with binding buffer containing LiCl (30 mM) and treated with the same buffer with or without a PTH analog. The cells were then incubated at 37° C. for 40 min, after which the buffer was removed and replaced by 0.5 mL of ice cold 5% trichloroacetic acid solution. After 3 h on ice, the lysate was collected and extracted twice with ethyl ether. The lysate was then applied to an ion exchange column (0.5 mL resin bed) and the total inositol phosphates were eluted as described previously (Berridge, M. J., et al., Biochem. J. 212:473-482 (1983)), and counted in liquid scintillation cocktail.
Thus, the truncated receptor can couple to the PCL signaling pathway when stimulated with the Aib-containing PTH peptide. […] Thus, the Aib-1,3 substitutions enhance the ligand's capacity to stimulate PLC activity with P1R-WT, as well as with P1R-delNt.

[2] = molecular target: T1, P1R-delNt, truncated human P1R deleted for residues (24-181); assay: Competition binding in COS-7 cells expressing hP1R-delNt; conditions: for Binding IC50 / IC50: COS-7 cells, hP1R-delNT, tracer 125I-[Aib^1,3,M]PTH(1-21), N.B. = no inhibition of tracer binding
[3] = Circular dichroism spectroscopy (helical content); assay type: physicochemical; conditions: for [0]222obs × 10^−3, Phos. / [0]222obs × 10^−3, Phos + TFE: 20 μM peptide; for [0]222obs × 10^−3, Phos.: 50 mM phosphate buffer pH 7.4; for [0]222obs × 10^−3, Phos + TFE / helical residues (%), Phos + TFE: 50 mM phosphate buffer with trifluoroethanol (20%); for helical residues (%), Phos + TFE / helical residues (%), Phos.: from elipticity at 222 nM; for helical residues (%), Phos.: 50 mM phosphate buffer
Experimental: Circular Dichroism. Circular Dichroism spectra were recorded on a Jasco model 710 spectropolarimeter; peptides were analyzed at a concentration of20 μM in 50 mM sodium phosphate buffer pH 7.4, or the same buffer containing 2,2,2-trifluoroethanol at 20% (v/v). Spectroscopic scans were preformed at 20° C. and at wavelengths between […], with data recored at each 1 nM interval. The spectral bandwidth was 1.5 nM and 8 scans were accumulated and averaged for each sample. At each wavelength, the mean residue elipticity [θ×100/l×C×n); where θ is the raw elipticity value (in dimensions of millidegree), l is the sample path length, C=is the molar peptide concentration, and n is the number of residues in the peptide (Bowen, W. P., and Jerman, J. C., Trends in Pharmacol. Sci. 16: 413-417 (1995)). The helical content of each peptide was estimated by dividing [θ] observed at 222 nM for that peptide by −28,100, which is the reported [θ]222obs for a model helical decapeptide (Bowen, W. P., and Jerman, J. C., Trends in Pharmacol. Sci. 16: 413-417 (1995)).
Circular dichroism (CD) spectroscopy was used to analyze the potential effects that the Aib substitutions had on peptide secondary structure when the peptides were free in solution. Samples were analyzed in both aqueous phosphate buffer and in phosphate buffer containing 2,2,2-trifloroethanol, an organic solvent which promotes helical structure in oligopeptides, including PTH peptide fragments (Pellegrini, M., et al., J. Biol. Chem. 273:10420-10427 (1998); Gronwald, W., et al., Biol. Chem. Hoppe Seyler 377:175-186 (1996); Barden, J. A., and Kemp, B. E., Biochemistry 32:7126-7132 (1993)). In phosphate buffer, the helical content of each peptide, estimated from the elipticity observed at 222 nM, was small (≦16%); however, [Aib^1,3,M]PTH(1-14) contained nearly twice as much helix as did [M]PTH(1-14) (16% and 8.1% respectively), as did [Aib^1,3,M]PTH(1-1l), as compared to […] (13% and 7.5% respectively, Table 4). […] The higher helical contents of these two peptides were evident not only from the negative elipticities at […] and 222 nM, but also from the positive elipticities at 192 nM (FIG. 6).

| Compound | increase in inositol phosphate (IP) production relative to the basal level [1] | Binding IC50 [2] | [0]222obs × 10^−3, Phos. [3] | [0]222obs × 10^−3, Phos + TFE [3] | helical residues (%), Phos + TFE [3] | helical residues (%), Phos + TFE ([3]; M]PTH(1-10)) [%] | helical residues (%), Phos. [3] [%] | IC50 [2] [nM] | PLC EMAX(obs.) ([1]; hP1R-delNT) [foldxbasal] | EC50 ([1]; hP1R-delNT, dash = no PLC response observed) [nM] | binding affinity, fold stronger than [M]PTH(1-14) ([2]; P1R-delNt) [fold] | difference in affinity between [Aib^1,3,M]PTH(1-14) and [Aib^1,3,M]PTH(1-21) ([2]; P1R-delNt) [fold] | Binding IC50 ([2]; listed as native PTH(1-14)) |
| --- | --- | --- | --- | --- | --- | --- | --- | --- | --- | --- | --- | --- | --- |
| CCCC[C@H](NC(=O)[C@H](CCCNC(=N)N)NC(=O)[C@H](CCC(=O)O)NC(=O)[C@@H](NC(=O)[C@H](CO)NC(=O)[C@H](C)NC(=O)[C@H](CC(C)C)NC(=O)[C@H](Cc1c[nH]cn1)NC(=O)[C@H](CCCCN)NC(=O)CNC(=O)[C@H](CC(C)C)NC(=O)[C@H](CC(N)=O)NC(=O)[C@H](Cc1c[nH]cn1)NC(=O)[C@H](CCCC)NC(=O)[C@H](CC(C)C)NC(=O)[C@H](CCC(N)=O)NC(=O)[C@@H](NC(=O)[C@H](CCC(=O)O)NC(=O)[C@H](CO)NC(=O)[C@@H](NC(=O)[C@H](C)N)C(C)C)[C@@H](C)CC)C(C)C)C(=O)N[C@@H](CCC(N)=O)C(=O)N[C@@H](Cc1c[nH]c2ccccc12)C(=O)N[C@@H](CC(C)C)C(=O)N[C@@H](CCCNC(=N)N)C(=O)N[C@@H](CCCCN)C(=O)N[C@@H](CCCCN)C(=O)N[C@@H](CC(C)C)C(=O)N[C@@H](CCC(N)=O)C(=O)N[C@@H](CC(=O)O)C(=O)N[C@H](C(=O)N[C@@H](Cc1c[nH]cn1)C(=O)N[C@@H](CC(N)=O)C(=O)N[C@@H](Cc1ccc(O)cc1)C(N)=O)C(C)C [PTH(1-34), [Nle^8,21, Tyr^34]PTH(1-34)amide, reference compound] | inactive | N.B. | – | – | – | – | – | – | – | – | – | – | – |
| CC[C@H](C)[C@H](NC(=O)[C@H](CCC(=O)O)NC(=O)C(C)(C)NC(=O)[C@@H](NC(=O)C(C)(C)N)C(C)C)C(=O)N[C@@H](CCC(N)=O)C(=O)N[C@@H](CC(C)C)C(=O)N[C@@H](CCSC)C(=O)N[C@@H](Cc1c[nH]cn1)C(=O)N[C@@H](CCC(N)=O)C(N)=O [[Aib^1,3,M]PTH(1-10), [Aib^1,3,Gln^10]PTH(1-10)] (H-[Aib]V[Aib]EIQLMHQ-NH2) | – | N.B. | −3.2 | −13.1 | approximately 47% | 47 | 11 | – | – | – | – | – | – |
| CC[C@H](C)[C@H](NC(=O)[C@H](CCC(=O)O)NC(=O)C(C)(C)NC(=O)[C@@H](NC(=O)C(C)(C)N)C(C)C)C(=O)N[C@@H](CCC(N)=O)C(=O)N[C@@H](CC(C)C)C(=O)N[C@@H](CCSC)C(=O)N[C@@H](Cc1c[nH]cn1)C(=O)N[C@@H](CCC(N)=O)C(=O)N[C@@H](CCCCNC(=N)N)C(N)=O [[Aib^1,3,M]PTH(1-11), AibValAibGluIleGlnLeuMetHisGlnHar] (H-[Aib]V[Aib]EIQLMHQ[hArg]-NH2) | – | – | −3.7 | −16.1 | 57% | – | 13 | 13000 | – | – | – | – | – |
| CC[C@H](C)[C@H](NC(=O)[C@H](CCC(=O)O)NC(=O)C(C)(C)NC(=O)[C@@H](NC(=O)C(C)(C)N)C(C)C)C(=O)N[C@@H](CCC(N)=O)C(=O)N[C@@H](CC(C)C)C(=O)N[C@@H](CCSC)C(=O)N[C@@H](Cc1c[nH]cn1)C(=O)N[C@@H](CCC(N)=O)C(=O)N[C@@H](CCCCNC(=N)N)C(=O)N[C@@H](C)C(=O)N[C@@H](CCCCN)C(=O)N[C@@H](Cc1c[nH]c2ccccc12)C(N)=O [[Aib^1,3,M]PTH(1-14), AibValAibGluIleGlnLeuMetHisGlnHarAlaLysTrp] (H-[Aib]V[Aib]EIQLMHQ[hArg]AKW-NH2) | ~3 fold | effectively inhibited the binding | −4.6 | −15.7 | 56% | – | 16 | ~1500 | 3.1 ± 0.2 | 130 ± 30 | ~10 | 50 | – |
| CC[C@H](C)[C@H](NC(=O)[C@H](CCC(=O)O)NC(=O)[C@H](C)NC(=O)[C@@H](NC(=O)[C@H](C)N)C(C)C)C(=O)N[C@@H](CCC(N)=O)C(=O)N[C@@H](CC(C)C)C(=O)N[C@@H](CCSC)C(=O)N[C@@H](Cc1c[nH]cn1)C(=O)N[C@@H](CCC(N)=O)C(=O)N[C@@H](CCCCNC(=N)N)C(=O)N[C@@H](C)C(=O)N[C@@H](CCCCN)C(=O)N[C@@H](Cc1c[nH]c2ccccc12)C(N)=O [[M]PTH(1-14), [Ala^3,12,Gln^10,Har^11,Trp^14]PTH(1-14)amide, reference compound] (H-AVAEIQLMHQ[hArg]AKW-NH2) | inactive | – | −2.3 | −11.9 | 42% | – | 8.1 | – | – | – | – | – | – |
| H-AVSEIQLMHNLGKH-NH2 [PTH(1-14), reference compound] | – | N.B. | −2.6 | −10.6 | 38% | – | 9.1 | – | – | – | – | – | failed to inhibit tracer binding |
